# Test system: venous thromboembolism (VTE) in patients hospitalized for acute medical illness
# Test: MAGELLAN (Study 1): efficacy of oral rivaroxaban 10 mg OD 35 days vs sc enoxaparin 40 mg OD 10 days then placebo
# Format: in vivo
# Protocol: The objective of Study 1 (MAGELLAN or MAGELLAN Study) was to compare efficacy and safety of venous thromboembolism (VTE) prophylaxis with oral rivaroxaban 10 mg once daily administered for 35±4 days (hereafter referred to as 35 days or Day 35) to subcutaneous enoxaparin 40 mg once daily (OD) administered for 10±4 days (hereafter referred to as 10 days or Day 10) in men and women aged 40 years or above, who have been hospitalized for a medical illness.
# Diagnosis and main criteria for inclusion in Study 1 was men and women 40 years or above and at risk for VTE being hospitalized for acute medical illness conditions, including: heart failure (New York Heart Association [NYHA] class III or IV); active cancer (e.g., admitted for chemotherapy or for the treatment of a complication of active cancer); acute ischemic stroke; acute infectious and inflammatory diseases, including acute rheumatic diseases; and acute respiratory insufficiency. Also at least one additional risk factor for VTE, including: severe varicosis (varicosities); chronic venous insufficiency; history of cancer; history of deep vein thrombosis (DVT) or pulmonary embolism (PE); history of heart failure (NYHA class III or IV); thrombophilia (hereditary or acquired); recent major surgery (6-12 weeks); recent serious trauma (6-12 weeks); hormone replacement therapy; advanced age greater than or equal to 75 years; morbid obesity (body mass index (BMI) 35 kg/m^2 or higher); and acute infectious disease contributing to hospitalization.
# The study was conducted in a prospective, randomized, double-blind, double dummy, active comparator-controlled, multicenter and multinational design. There were 8101 subjects were randomized at 556 study centers in 52 countries to one of the two treatment groups. Of the 8101 randomized subjects, 4050 were randomized to active rivaroxaban and 4051 were randomized to active enoxaparin.
# Primary Endpoints: The primary efficacy variable was a composite of the number of events of: asymptomatic proximal DVT in lower extremity detected by mandatory bilateral lower extremity venous ultrasonography; symptomatic DVT in lower extremity, proximal or distal; symptomatic, non-fatal PE; and VTE-related death defined as either a well-documented fatal PE, or sudden death with no other plausible explanation. The two primary efficacy endpoints were (i) test of superiority at Day 35 (Days 29-41, inclusive) and (ii) test of non-inferiority at Day 10 (Days 6-15, inclusive).
# Secondary Endpoints: The first major secondary efficacy endpoint was defined as a composite of the test of superiority at Day 35 with component of VTE-related death substituted by all-cause mortality, up to Day 35. The second major efficacy secondary efficacy endpoint was the test for superiority at Day 10 using the same composite endpoint as the Day 10 non-inferiority test.
# For both primary efficacy endpoints, the relative risk ratio (rivaroxaban/enoxaparin) with respect to the incidences of the primary efficacy endpoint was estimated based on a stratified estimator using Mantel-Haenszel weights (based on sample sizes by geographic region). The corresponding asymptotic 2-sided 95% confidence interval based on the approximation to the normal distribution was determined. Sensitivity analyses were performed for the primary efficacy endpoints.
# The primary efficacy variable was a composite of the number of events of (1) asymptomatic proximal DVT in lower extremity detected by mandatory bilateral lower extremity venous ultrasonography; (2) symptomatic DVT in lower extremity, proximal or distal; (3) symptomatic, nonfatal PE; and (4) VTE-related death. […]
# [1] = Day 10 + 5, PP Day 10 plus major and clinically relevant bleeds
# [2] = Day 10 + 5, per protocol Day 10 analysis set
# [3] = Day 10 + 5 up to Day 35 + 6, mITT (Day 10 to Day 35) analysis set
# [4] = Day 10 + 5 up to Day 35 + 6, mITT (Day 10 to Day 35) analysis set, listed as enoxaparin
# [5] = Day 35 + 6, mITT Day 35 analysis set
# [6] = Day 35 + 6, mITT Day 35 analysis set, listed as enoxaparin
# [7] = Day 35 + 6, mITT Day 35 plus major and clinically relevant bleeds
substance,measurement,setting,value
Enoxaparin,"Major vascular events (CV death, acute myocardial infarction, or acute ischemic stroke), incidence",Day 10,1.0%
same,"Symptomatic VTE excluding VTE-related death, incidence",Day 10,0.3%
same,"Symptomatic VTE including death, incidence",Day 10,0.6%
same,Net clinical benefit component: asymptomatic lower proximal deep vein thrombosis,[1],71 (2.4%)
same,Net clinical benefit component: clinically relevant non-major bleeding,[1],32 (1.1%)
same,Net clinical benefit component: death (pulmonary embolism),[1],6 (0.2%)
same,Net clinical benefit component: major bleeding,[1],4 (0.1%)
same,Net clinical benefit component: symptomatic deep vein thrombosis in lower extremity,[1],6 (0.2%)
same,Net clinical benefit component: symptomatic non-fatal pulmonary embolism,[1],2 (<0.1%)
same,Net clinical benefit component: venous thromboembolism related death,[1],6 (0.2%)
same,"Net clinical benefit, any event, incidence",[1],118 (3.9%)
same,"Net clinical benefit, any event, incidence","Day 10 + 5, PP Day 10 plus major and clinically relevant bleeds, listed as enoxaparin",3.9%
same,"Asymptomatic proximal deep vein thrombosis in lower extremity, incidence",[2],71 (2.4%)
same,"Death (pulmonary embolism cannot be excluded), incidence",[2],6 (0.2%)
same,"Primary efficacy composite, any event, incidence",[2],82 (2.7%)
same,"Symptomatic deep vein thrombosis in lower extremity, incidence",[2],6 (0.2%)
same,"Symptomatic non-fatal pulmonary embolism, incidence",[2],2 (<0.1%)
same,"Venous thromboembolism related death, incidence",[2],6 (0.2%)
same,"Primary efficacy composite, any event, incidence","Day 10 + 5, per protocol Day 10 analysis set, listed as enoxaparin",2.7%
same,"Asymptomatic proximal deep vein thrombosis in lower extremity, incidence",[3],89 (2.9%)
same,"Death (pulmonary embolism cannot be excluded), incidence",[3],15 (0.5%)
same,"Death (pulmonary embolism), incidence",[3],0%
same,"Symptomatic deep vein thrombosis in lower extremity, incidence",[3],7 (0.2%)
same,"Symptomatic non-fatal pulmonary embolism, incidence",[3],10 (0.3%)
same,"Venous thromboembolism related death, incidence",[3],15 (0.5%)
same,"Primary efficacy composite, any event, incidence","Day 10 + 5 up to Day 35 + 6, mITT (Day 10 to Day 35) analysis set, rivaroxaban-placebo phase",114 (3.8%)
same,"Primary efficacy composite, any event, incidence","Day 10 + 5 up to Day 35 + 6, mITT (Day 10 to Day 35) analysis set, rivaroxaban-placebo phase, listed as enoxaparin",3.8%
same,"Asymptomatic proximal deep vein thrombosis in lower extremity, incidence",[4],2.9%
same,"Venous thromboembolism related death, incidence",[4],0.5%
same,"Major vascular events, incidence",Day 35,1.6%
same,"Symptomatic VTE excluding VTE-related death, incidence",Day 35,0.7%
same,"Symptomatic VTE including death, incidence",Day 35,1.4%
same,"Asymptomatic proximal deep vein thrombosis in lower extremity, incidence",[5],133 (4.4%)
same,"Death (pulmonary embolism cannot be excluded), incidence",[5],29 (0.9%)
same,"Death (pulmonary embolism), incidence",[5],1 (<0.1%)
same,"Primary efficacy composite, any event, incidence",[5],175 (5.7%)
same,"Symptomatic deep vein thrombosis in lower extremity, incidence",[5],15 (0.5%)
same,"Symptomatic non-fatal pulmonary embolism, incidence",[5],14 (0.5%)
same,"Venous thromboembolism related death, incidence",[5],30 (1.0%)
same,"Asymptomatic proximal deep vein thrombosis in lower extremity, incidence",[6],4.4%
same,"Primary efficacy composite, any event, incidence",[6],5.7%
same,"Venous thromboembolism related death, incidence",[6],1.0%
same,Net clinical benefit component: asymptomatic lower proximal deep vein thrombosis,[7],133 (4.3%)
same,Net clinical benefit component: clinically relevant non-major bleeding,[7],52 (1.7%)
same,Net clinical benefit component: death (pulmonary embolism cannot be excluded),[7],29 (0.9%)
same,Net clinical benefit component: death (pulmonary embolism),[7],1 (<0.1%)
same,Net clinical benefit component: major bleeding,[7],15 (0.5%)
same,Net clinical benefit component: symptomatic deep vein thrombosis in lower extremity,[7],15 (0.5%)
same,Net clinical benefit component: symptomatic non-fatal pulmonary embolism,[7],14 (0.5%)
same,Net clinical benefit component: venous thromboembolism related death,[7],30 (1.0%)
same,"Net clinical benefit, any event, incidence",[7],240 (7.8%)
same,"Net clinical benefit, any event, incidence","Day 35 + 6, mITT Day 35 plus major and clinically relevant bleeds, listed as enoxaparin",7.8%
same,"Composite endpoint including all-cause mortality, incidence","Day 35, mITT Day 35 expanded",9.2%
same,"All-cause mortality, incidence",Day 90,6.2%
same,"Major vascular events, incidence",Day 90,2.8%
same,"Symptomatic VTE excluding VTE-related death, incidence",Day 90,0.9%
same,"Symptomatic VTE including death, incidence",Day 90,1.9%

# From patent US20200397795A1, “PROPHYLACTIC TREATMENT OF VENOUS THROMBOEMBOLISM” (JANSSEN PHARMACEUTICALS, INC., priority 2019, published 2020)
